The values below come from article PMC12222847 (Scientific Reports, 2025).

A word on the IC50: it is the concentration that inhibits the measured activity by half. A higher IC50 goes with weaker potency.

The assay deals with T1, CK1.2 (Trypanosoma brucei, UniProt Q57W25).
T1 sequence (Q57W25 1-332): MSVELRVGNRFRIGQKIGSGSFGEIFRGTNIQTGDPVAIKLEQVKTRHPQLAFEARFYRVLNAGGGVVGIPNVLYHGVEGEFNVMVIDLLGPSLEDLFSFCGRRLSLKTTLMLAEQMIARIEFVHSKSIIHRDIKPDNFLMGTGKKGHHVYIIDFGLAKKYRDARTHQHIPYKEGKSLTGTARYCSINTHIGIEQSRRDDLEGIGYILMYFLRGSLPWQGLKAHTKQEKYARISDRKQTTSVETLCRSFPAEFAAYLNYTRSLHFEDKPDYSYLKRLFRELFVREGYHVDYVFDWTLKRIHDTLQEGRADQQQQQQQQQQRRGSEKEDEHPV
The class given is biochemical.

In turn, `Nc1nccc(-c2c(-c3ccc(F)cc3)ncn2C2CCCCC2)n1` [PF-670462] yielded an IC50 of 29.1 nM.
To `NC(=O)c1ccc(-c2nc(-c3ccc4c(c3)OCO4)c(-c3ccccn3)[nH]2)cc1` [SB-431542] belongs 49.2 nM.
